{
  "source": "patent EP4721746A1",
  "about": "“TREATMENT OF MALIGNANT TUMOR” (SymBio Pharmaceuticals Limited, priority 2023, dated 2024)",
  "key": {"Z4739 cell line": {"tested_on": "Z4739 cell line", "assay": "Whole transcriptome sequencing and GSEA of BCV-treated Z4739 cell line", "assay_type": "cell-based", "settings": "Z4739 treated with 0.1 and 1 µg/mL of BCV", "experimental": "The effect of BCV on the gene expression of a T-cell lymphoma cell line was examined. Whole transcriptome sequencing of the Z4739 cell line treated with 0.1 and 1 µg/mL of BCV was performed, and Gene set enrichment analysis (GSEA) was performed using the Molecular Signatures Database (MSigDB) Hallmark gene set. […] Individual gene expression profiles (IFNB1, IFNY, CCL5, CXCL10, MYC) obtained from the whole transcriptome sequencing results were expressed as the number of transcripts detected per million reads."}, "[1]": {"tested_on": "T-cell lymphoma cell lines", "assay": "CellTiter-Glo 2.0 cell viability assay, T-cell lymphoma cell lines", "assay_type": "cell-based", "settings": "11 T-cell lymphoma cell lines; Fig. 9", "experimental": "The effect of BCV on the viability of 11 different T-cell lymphoma cell lines was examined. Cell viability was quantified using Promega CellTiter-Glo(registered trademark) 2.0 Cell Viability Assay (Promega, Madison, Wisconsin, USA) according to the manufacturer's protocol. Specifically, cells were plated in a 96-well plate at a concentration of 2×10^3 cells in 100 µL of culture medium, and the drug was added at each concentration. After each time point, Promega CellTiter-Glo(registered trademark) 2.0 Cell Viability Assay reagent was added to the wells and incubated at room temperature for 10 minutes, and subsequently, absorbance at 480 nm was measured using a Tecan M200 Infinite 96-well plate reader and iControl software 1.6 (Tecan, Männedorf, Switzerland). Cell viability was calculated as a percentage of a control absorbance. The growth-inhibitory effect was analyzed by generating a dose-response curve as a plot of the percentage of viable cells against the drug concentration, and their IC50s were estimated using GraphPad Prism version 8.0.2 (GraphPad Software). All reactions were performed in triplicate."}, "Z4739 cells": {"tested_on": "Z4739 cells", "assay": "Western blotting of lysates of BCV-treated Z4739 cells", "assay_type": "cell-based", "settings": "Z4739 treated with 0.1 and 1 µg/mL of BCV; Western blot, Fig. 13", "experimental": "Lysates of Z4739 cells treated with 0.1 and 1 µg/mL of BCV were separated by SDS-PAGE using 4-15% Mini-PROTEAN™ TGX Stain-Free™ Protein Gels (Bio-Rad Laboratories, Hercules, CA, USA), and the separated components were transferred to a 0.2 µm PVDF membrane (Bio-Rad Laboratories, Hercules, California, USA). After blocking for 1 hour in a TBST solution (50 mM Tris/HCl, pH 7.4, 150 mM NaCl, 0.1% Tween-20) containing 5% skimmed milk powder (Bio-Rad Laboratories, Hercules, CA, USA) or 5% bovine serum albumin (Sigma-Aldrich, Darmstadt, Germany), the membrane was exposed to respective primary antibodies overnight at 4°C with gentle shaking. Furthermore, exposure to an HRP-conjugated anti-rabbit or anti-mouse antibody (Cytiva, Washington D.C., USA) was performed for 1 hour, and finally, chemiluminescent detection was performed using a SuperSignal Substrate Western Blotting Kit (Thermo Fisher Scientific, MA, USA) and imaged on a ChemiDoc™ XRS+ system (Bio-Rad Laboratories, Hercules, California, USA) using Image Lab™ software."}, "[2]": {"tested_on": "T-cell lymphoma cells (Z4739)", "assay": "In vivo study, NSG mice inoculated with Z4739", "experimental": "(§1) 0.5 x 10^6 cells of Z4739 were inoculated into 6-week-old female NSG mice, and BCV or a control solvent was administered intraperitoneally at a dosage of 40 mg/kg twice weekly. Tumor measurements were recorded at each time point (Days 4, 7, 11, 18, and 21) until the tumor size in the control group reached approximately 2500 mm^3. Mice were euthanized according to the IACUC guidelines. The tumor sizes and weights of the experimental group and the control group (n=5 per group) were averaged on Day 21 and compared statistically. Throughout the experiment, signs of toxicity including diarrhea and weight loss were monitored."}, "[3]": {"tested_on": "NK/T-cell lymphoma cells (NK-S1)", "assay": "In vivo study, NSG mice inoculated with NK-S1", "experimental": "as §1, with “NK-S1” for “Z4739”, “twice weekly” for “at each time point (Days 4, 7, 11, 18, and 21)”, “2000” for “2500”, “sizes” for “sizes and weights”, “(n=8” for “(n=5”, “at each time point (Days 1, 5, 8, 12, and 15)” for “on Day 21”"}, "[4]": {"tested_on": "B-cell lymphoma cell lines", "assay": "CellTiter-Glo 2.0 cell viability assay, B-cell lymphoma cell lines", "assay_type": "cell-based", "settings": "19 B-cell lymphoma cell lines; Fig. 14", "experimental": "The effect of BCV on cell viability was examined in 19 different B-cell lymphoma cell lines and a CML cell line (K-562) as a control. Cell viability was quantified using Promega CellTiter-Glo(registered trademark) 2.0 Cell Viability Assay (Promega, Madison, Wisconsin, USA) according to the manufacturer's protocol. Specifically, cells were plated in a 96-well plate at a concentration of 2×10^3 cells in 100 µL of culture medium, and the drug (BCV) was added at each concentration. After each time point, Promega CellTiter-Glo(registered trademark) 2.0 Cell Viability Assay reagent was added to the wells and incubated at room temperature for 10 minutes, and subsequently, absorbance at 480 nm was measured using a Tecan M200 Infinite 96-well plate reader and iControl software 1.6 (Tecan, Männedorf, Switzerland). Cell viability was calculated as a percentage of a control absorbance. The growth-inhibitory effect was analyzed by generating a dose-response curve as a plot of the percentage of viable cells against the drug concentration, and their IC50s were estimated using GraphPad Prism version 8.0.2 (GraphPad Software). All reactions were performed in triplicate."}, "[5]": {"tested_on": "B-cell lymphoma cells (OCI-LY19)", "assay": "In vivo study, NSG mice inoculated with OCI-LY19", "experimental": "as §1, with “OCI-LY19” for “Z4739”, “1, 5, 6,” for “4, 7, 11, 18,”, “7)” for “21)”, “7” for “21”"}, "[6]": {"tested_on": "NK/T-cell lymphoma cell lines", "assay": "CellTiter-Glo 2.0 cell viability assay, NK/T-cell lymphoma cell lines", "assay_type": "cell-based", "settings": "11 NK/T-cell lymphoma cell lines; Fig. 1", "experimental": "The effect of BCV on cell viability was examined in 11 different NK/T-cell lymphoma cell lines. Cell viability was quantified using Promega CellTiter-Glo(registered trademark) 2.0 Cell Viability Assay (Promega, Madison, Wisconsin, USA) according to the manufacturer's protocol. Specifically, cells were plated in a 96-well plate at a concentration of 2×10^3 cells in 100 µL of culture medium, and the drug (BCV) was added at each concentration. After each time point, Promega CellTiter-Glo (registered trademark) 2.0 Cell Viability Assay reagent was added to the wells and incubated at room temperature for 10 minutes, and subsequently, absorbance at 480 nm was measured using a Tecan M200 Infinite 96-well plate reader and iControl software 1.6 (Tecan, Männedorf, Switzerland). Cell viability was calculated as a percentage of the control absorbance. The growth-inhibitory effect was analyzed by generating a dose-response curve as a plot of the percentage of viable cells against the drug concentration, and their IC50s were estimated using GraphPad Prism version 8.0.2 (GraphPad Software). All reactions were performed in triplicate."}},
  "data": [
    {"smiles": "CCCCCCCCCCCCCCCCOCCCOP(=O)(O)CO[C@H](CO)Cn1ccc(N)nc1=O", "note": "[BCV, [(2S)-1-(4-amino-2-oxopyrimidin-1-yl)-3-hydroxypropan-2-yl]oxymethyl-(3-hexadecoxypropoxy)phosphinic acid]", "values": [
      {"measurement": "expression of immune activation-related genes such as INFγ", "setting": "Z4739 cell line", "value": "increased"},
      {"measurement": "expression of MYC", "setting": "Z4739 cell line; Figs. 12A-C", "value": "decreased"},
      {"measurement": "expression of MYC-related gene groups", "setting": "Z4739 cell line; GSEA", "value": "decreased"},
      {"measurement": "expression of other oncogenic genes such as those related to mTOR", "setting": "Z4739 cell line; GSEA", "value": "decreased"},
      {"measurement": "Sensitivity to BCV", "setting": "[1]", "value": "high in all cell lines"},
      {"measurement": "viability of T-cell lymphoma cells", "setting": "[1]", "value": "decreased"},
      {"measurement": "DNA damage (phospho-H2AX)", "setting": "Z4739 cells", "value": "increase"},
      {"measurement": "MYC protein", "setting": "Z4739 cells", "value": "decrease"},
      {"measurement": "PD-L1", "setting": "Z4739 cells", "value": "increase"},
      {"measurement": "apoptosis indicators (cleaved PARP, cleaved caspase-3)", "setting": "Z4739 cells", "value": "increase"},
      {"measurement": "cell cycle-related indicators (phospho-CHK1 Ser317/Ser345)", "setting": "Z4739 cells", "value": "increase"},
      {"measurement": "animal's health status", "setting": "[2]; Z4739 in NSG mice, 40 mg/kg intraperitoneally twice weekly", "value": "good"},
      {"measurement": "enlargement of the lymphoma (tumor size)", "setting": "[2]; Z4739 in NSG mice, 40 mg/kg intraperitoneally twice weekly, Figs. 10A-D", "value": "significantly suppressed"},
      {"measurement": "tumor volume", "setting": "[2]; Z4739 in NSG mice, 40 mg/kg intraperitoneally twice weekly, between Day 0 and Day 21, Fig. 10A", "value": "almost no increase in tumor volume observed"},
      {"measurement": "signs of toxicity: weight loss or diarrhea", "setting": "[2]; mouse, in vivo, ip, 40 mg/kg", "value": "no significant weight loss or diarrhea was observed"},
      {"measurement": "animal's health status", "setting": "[3]; NK-S1 in NSG mice, 40 mg/kg intraperitoneally twice weekly", "value": "good"},
      {"measurement": "enlargement of lymphoma (tumor size)", "setting": "[3]; NK-S1 in NSG mice, 40 mg/kg intraperitoneally twice weekly, Days 1-15, Figs. 2A-D", "value": "significantly suppressed"},
      {"measurement": "signs of toxicity: diarrhea", "setting": "[3]; mouse, in vivo, ip, 40 mg/kg", "value": "no diarrhea observed"},
      {"measurement": "Sensitivity to BCV", "setting": "[4]", "value": "varied for each cell line"},
      {"measurement": "viability of B-cell lymphoma cells", "setting": "[4]", "value": "decreased"},
      {"measurement": "animal's health status", "setting": "[5]; OCI-LY19 in NSG mice, 40 mg/kg intraperitoneally twice weekly", "value": "good"},
      {"measurement": "enlargement of lymphoma (tumor size)", "setting": "[5]; OCI-LY19 in NSG mice, 40 mg/kg intraperitoneally twice weekly, Days 1-7, Figs. 15A-D", "value": "significantly suppressed"},
      {"measurement": "signs of toxicity: weight loss or diarrhea", "setting": "[5]; mouse, in vivo, ip, 40 mg/kg", "value": "no weight loss or diarrhea observed"},
      {"measurement": "Sensitivity to BCV", "setting": "[6]", "value": "varied for each cell line"},
      {"measurement": "viability of NK/T-cell lymphoma cells", "setting": "[6]", "value": "decreased"}
    ]}
  ]
}
